Data published in patent publication US9326506B2, “Preparation method, agricultural composition and applications of natural brassinolide analogs” (CHENGDU NEWSUN CROPSCIENCE CO., LTD, priority 2012, dated 2016).

Test system: rice
Experiment: Low temperature assay on rice seedlings
Format: in vivo
Protocol: According to a low temperature assay, we measured parameters including plant height, number of leaf, area of leaf, number of tiller, weight of root at low temperature to completely determine effects of the natural brassinolide analogues on the resistance to low temperature of a plant.
The natural brassinolide analogues, BR1, BR2, BR3, BR4, BR5 and BR6, used herein, were those prepared by the method of Example 1. Respectively the analogues were dissolved into 95% (V/V) ethanol solution, and then diluted with pure water to 1 mg/L, 0.1 mg/L, 0.01 mg/L, 0.001 mg/L and 0.0001 mg/L. In addition, pure water was used as a control.
After rice seeds were disinfected by using 5% sodium hypochlorite solution treatment, they were rinsed with distilled water until their pH>7, placed into a petri dish in a dark incubator, and cultured by using water at 30° C.±2° C. for 9 days. Then respectively the nine-day-old etiolated seedlings of rice were immersed in the above solutions containing different concentrations of the natural brassinolide analogues or pure water, and cultured at the temperature of 1° C., 2° C., 3° C., 4° C. and 5° C. for 24 hr. The parameters including plant height, area of leaf and weight of root after 3, 6, 9 and 12 days and number of leaf and number of tiller after 12 days were measured.

CC[C@@H](C(C)C)[C@@H](O)[C@H](O)[C@@H](C)[C@H]1CCC2C3COC(=O)C4C[C@H](O)[C@H](O)C[C@]4(C)C3CC[C@@]21C (stereo partly shown) [BR2]
Area of leaf (0.001 mg/l, 2 °C, 6 days): 11.6 cm^2 | Height (0.001 mg/l, 2 °C, 6 days): 7.1 cm | Weight of root (0.001 mg/l, 2 °C, 6 days): 3.0 g | Area of leaf (0.001 mg/l, 2 °C, 9 days): 12.1 cm^2 | Height (0.001 mg/l, 2 °C, 9 days): 7.1 cm | Weight of root (0.001 mg/l, 2 °C, 9 days): 3.2 g | Area of leaf (0.001 mg/l, 2 °C, 12 days): 13.1 cm^2 | Height (0.001 mg/l, 2 °C, 12 days): 7.3 cm | Number of leaf (0.001 mg/l, 2 °C, 12 days): 3 | Number of tiller (0.001 mg/l, 2 °C, 12 days): 3 | Weight of root (0.001 mg/l, 2 °C, 12 days): 3.9 g | Area of leaf (0.001 mg/l, 3 °C, 3 days): 10 cm^2 | Height (0.001 mg/l, 3 °C, 3 days): 7 cm | Weight of root (0.001 mg/l, 3 °C, 3 days): 2.5 g | Area of leaf (0.001 mg/l, 3 °C, 6 days): 12 cm^2 | Height (0.001 mg/l, 3 °C, 6 days): 7.1 cm | Weight of root (0.001 mg/l, 3 °C, 6 days): 2.6 g | Area of leaf (0.001 mg/l, 3 °C, 9 days): 12.4 cm^2 | Height (0.001 mg/l, 3 °C, 9 days): 7.3 cm | Weight of root (0.001 mg/l, 3 °C, 9 days): 2.9 g | Area of leaf (0.001 mg/l, 3 °C, 12 days): 13 cm^2 | Height (0.001 mg/l, 3 °C, 12 days): 7.4 cm | Number of leaf (0.001 mg/l, 3 °C, 12 days): 3 | Number of tiller (0.001 mg/l, 3 °C, 12 days): 2 | Weight of root (0.001 mg/l, 3 °C, 12 days): 2.9 g | Area of leaf (0.001 mg/l, 4 °C, 3 days): 10 cm^2 | Height (0.001 mg/l, 4 °C, 3 days): 7.1 cm | Weight of root (0.001 mg/l, 4 °C, 3 days): 2.5 g | Area of leaf (0.001 mg/l, 4 °C, 6 days): 12.1 cm^2 | Height (0.001 mg/l, 4 °C, 6 days): 7.3 cm | Weight of root (0.001 mg/l, 4 °C, 6 days): 2.6 g | Area of leaf (0.001 mg/l, 4 °C, 9 days): 13 cm^2 | Height (0.001 mg/l, 4 °C, 9 days): 7.5 cm | Weight of root (0.001 mg/l, 4 °C, 9 days): 2.9 g | Area of leaf (0.001 mg/l, 4 °C, 12 days): 13.5 cm^2 | Height (0.001 mg/l, 4 °C, 12 days): 7.5 cm | Number of leaf (0.001 mg/l, 4 °C, 12 days): 3 | Number of tiller (0.001 mg/l, 4 °C, 12 days): 2 | Weight of root (0.001 mg/l, 4 °C, 12 days): 2.9 g | Area of leaf (0.001 mg/l, 5 °C, 3 days): 10.2 cm^2 | Height (0.001 mg/l, 5 °C, 3 days): 7.2 cm | Weight of root (0.001 mg/l, 5 °C, 3 days): 2.8 g | Area of leaf (0.001 mg/l, 5 °C, 6 days): 14 cm^2 | Height (0.001 mg/l, 5 °C, 6 days): 7.5 cm | Weight of root (0.001 mg/l, 5 °C, 6 days): 2.9 g | Area of leaf (0.001 mg/l, 5 °C, 9 days): 15.4 cm^2 | Height (0.001 mg/l, 5 °C, 9 days): 7.8 cm | Weight of root (0.001 mg/l, 5 °C, 9 days): 3.0 g | Area of leaf (0.001 mg/l, 5 °C, 12 days): 16 cm^2 | Height (0.001 mg/l, 5 °C, 12 days): 8 cm | Number of leaf (0.001 mg/l, 5 °C, 12 days): 3 | Number of tiller (0.001 mg/l, 5 °C, 12 days): 3 | Weight of root (0.001 mg/l, 5 °C, 12 days): 3.7 g | Area of leaf (0.01 mg/l, 1 °C, 3 days): 10.1 cm^2 | Height (0.01 mg/l, 1 °C, 3 days): 7.0 cm | Weight of root (0.01 mg/l, 1 °C, 3 days): 2.8 g | Area of leaf (0.01 mg/l, 1 °C, 6 days): 11.6 cm^2 | Height (0.01 mg/l, 1 °C, 6 days): 7.2 cm | Weight of root (0.01 mg/l, 1 °C, 6 days): 3.0 g | Area of leaf (0.01 mg/l, 1 °C, 9 days): 12.4 cm^2 | Height (0.01 mg/l, 1 °C, 9 days): 7.4 cm | Weight of root (0.01 mg/l, 1 °C, 9 days): 3.4 g | Area of leaf (0.01 mg/l, 1 °C, 12 days): 13.6 cm^2 | Height (0.01 mg/l, 1 °C, 12 days): 7.5 cm | Number of leaf (0.01 mg/l, 1 °C, 12 days): 3 | Number of tiller (0.01 mg/l, 1 °C, 12 days): 3 | Weight of root (0.01 mg/l, 1 °C, 12 days): 3.9 g | Area of leaf (0.01 mg/l, 2 °C, 3 days): 10.1 cm^2 | Height (0.01 mg/l, 2 °C, 3 days): 7.1 cm | Weight of root (0.01 mg/l, 2 °C, 3 days): 2.8 g | Area of leaf (0.01 mg/l, 2 °C, 6 days): 11.1 cm^2 | Height (0.01 mg/l, 2 °C, 6 days): 7.2 cm | Weight of root (0.01 mg/l, 2 °C, 6 days): 3.1 g | Area of leaf (0.01 mg/l, 2 °C, 9 days): 12.5 cm^2 | Height (0.01 mg/l, 2 °C, 9 days): 7.5 cm | Weight of root (0.01 mg/l, 2 °C, 9 days): 3.1 g | Area of leaf (0.01 mg/l, 2 °C, 12 days): 13.4 cm^2 | Height (0.01 mg/l, 2 °C, 12 days): 7.5 cm | Number of leaf (0.01 mg/l, 2 °C, 12 days): 3 | Number of tiller (0.01 mg/l, 2 °C, 12 days): 3 | Weight of root (0.01 mg/l, 2 °C, 12 days): 3.2 g | Area of leaf (0.01 mg/l, 3 °C, 3 days): 10.2 cm^2 | Height (0.01 mg/l, 3 °C, 3 days): 7.1 cm | Weight of root (0.01 mg/l, 3 °C, 3 days): 2.5 g | Area of leaf (0.01 mg/l, 3 °C, 6 days): 12 cm^2 | Height (0.01 mg/l, 3 °C, 6 days): 7.2 cm | Weight of root (0.01 mg/l, 3 °C, 6 days): 2.6 g | Area of leaf (0.01 mg/l, 3 °C, 9 days): 12.6 cm^2
